Reference: ChEMBL document CHEMBL1130480, “Structure-activity relationship of cantharidin derivatives to protein phosphatases 1, 2A1, and 2B” (Bioorg Med Chem Lett, 1997)

Legend:
Oryctolagus cuniculus [1] = organism: Oryctolagus cuniculus; assay: Inhibition of Protein phosphatase 1 at 0.1 mM
Oryctolagus cuniculus [2] = organism: Oryctolagus cuniculus; assay: Inhibition of Protein phosphatase 1 at 1 mM
Oryctolagus cuniculus [3] = organism: Oryctolagus cuniculus; assay: Inhibition of Protein phosphatase 2A1 (PP2A1) at 0.1 mM
Oryctolagus cuniculus [4] = organism: Oryctolagus cuniculus; assay: Inhibition of Protein phosphatase 2A1 (PP2A1) at 1 mM
Bos taurus [5] = organism: Bos taurus; assay: Inhibition of Protein phosphatase 2B (PP2B) at 0.1 mM
Bos taurus [6] = organism: Bos taurus; assay: Inhibition of Protein phosphatase 2B (PP2B) at 1 mM

Compound	inhibition (Oryctolagus cuniculus [1]) [%]	inhibition (Oryctolagus cuniculus [2]) [%]	inhibition (Oryctolagus cuniculus [3]) [%]	inhibition (Oryctolagus cuniculus [4]) [%]	inhibition (Bos taurus [5]) [%]	inhibition (Bos taurus [6]) [%]
CC(=O)OCC1=CC2OC1C1C(=O)OC(=O)C21 (centres undefined)	59	92	60	98	25	90
CC(=O)OCC1CC2OC1C1C(=O)OC(=O)C21 (centres undefined)	90	100	70	98	20	85
CC(=O)OCC1=CC2OC1C(C(=O)O)C2C(=O)O (centres undefined)	50	80	40	90	20	89
O=C1OC(=O)C2C3OC(CC3COC3CCCCC3)C12 (centres undefined)	70	90	75	100	40	100
O=C(O)C1C2CCC3(COC(=O)C13)O2 (centres undefined)	9	20	8	8	18	20
O=C1OC(=O)C2C1C1C=CC2(CO)O1 (centres undefined)	8	18	5	12	10	50
O=C1OC(=O)C2C3OC(C=C3COC3CCCCC3)C12 (centres undefined)	50	60	80	100	30	70
CC(=O)OCC12C=CC(O1)C1C(=O)OC(=O)C12 (centres undefined)	5	30	5	40	10	50
O=C1OC(=O)C2C3C=CC(O3)C12 (centres undefined)	95	98	95	95	40	99
CC(=O)OCC12CCC(O1)C1C(=O)OC(=O)C12 (centres undefined)	20	70	5	50	30	45
CC12CCC(C)(O1)C(C(=O)O)C2C(=O)O (centres undefined)	0	1	0	2	17	18
C[C@@]12C(=O)OC(=O)[C@]1(C)C1CCC2O1	85	90	85	98	15	38
O=C1OC(=O)C2C3CCC(O3)C12 (centres undefined)	95	100	94	100	35	98
CC(=O)OCC12C=CC(O1)C(C(=O)O)C2C(=O)O (centres undefined)	5	40	0	25	10	60
